{
  "source": "patent US20160310512A1",
  "about": "“THERAPY REGIMEN FOR TREATING SEVERE ACNE RELATED DISEASES” (GALDERMA RESEARCH & DEVELOPMENT, priority 2013, published 2016)",
  "key": {"[1]": {"settings": "when combined with BPO; unlike tretinoin; cited from earlier work"}, "severe acne vulgaris [2]": {"tested_on": "severe acne vulgaris", "test": "Same clinical study: composite overall success (efficacy + safety)", "type": "in vivo, human", "excerpt": "To achieve this objective, a primary outcome, overall success, was defined as a composite endpoint including efficacy and safety measurements.\nOverall success was deemed to be reached when the 2 following criteria were fulfilled:\n(§1) Reduction of at least 75% of number of nodules at the end of treatment"}, "severe acne vulgaris [3]": {"tested_on": "severe acne vulgaris", "test": "Multi-center randomized investigator-blind clinical study, 20 weeks: efficacy on acne lesions, nodules and atrophic scars", "type": "in vivo, human", "settings": "for Atrophic acne scar count (Mean ± SD): half face", "procedure": "This example was the first study evaluating the concomitant use of these treatments.\nIsotretinoin is administrated under capsule form (of 40 mg and/or 10 mg each). The quantity administrated was calculated according to patient weight and treatment duration in order to finally administrate a dosage of 0.5 mg/kg for the first 4 weeks of treatment and 1 mg/kg for the 16 remaining weeks.\nThis study was conducted as a multi-center, randomized, investigator-blind, controlled and parallel group trial. This non-inferiority study involved subjects of any race, aged 12 to 35 years inclusive with severe acne and meeting specific eligibility criteria.\nSubjects were randomized at baseline and treated for 20 weeks with either Adapalene-BPO gel associated with oral doxycycline or its vehicle gel associated with oral Isotretinoin.\nA total of 266 subjects were enrolled across 29 centres in Canada. Of which, 217 subjects were included in the analysis-per-protocol (PP) populations (all randomized subjects without any major protocol deviations) for primary endpoint analysis. All other endpoints were analysed with population-intent-to-treat (ITT) (all randomized subjects who were dispensed study medication) (N=266).\nFor efficacy variables, in order to evaluate the effect of major deviations or of data exclusions, the ITT population were analyzed at each visit using the last observation carried forward (LOCF) to impute missing values. If no post-baseline data was available, baseline was carried forward. […] The other missing values were not replaced (observed data).\nas §1\nOther secondary efficacy endpoints were the percent change from baseline visit in Total lesion counts, Inflammatory lesion counts, Nodule counts, and the total atrophic acne scar counts."}, "P. acnes": {"tested_on": "P. acnes", "test": "P. acnes presence by UV fluorescence photography (Visia system), subset of 40 subjects", "type": "in vivo", "procedure": "Atrophic acne scar counts were conducted on half the face and the presence of P. acnes were also assessed by UV fluorescence photography (Visia® system—Canfield Scientific, Inc.). […] As few centers were equipped with this system, this test was performed on a subset of only 40 subjects."}, "[4]": {"settings": "ITT Observed population, count (%)"}, "[5]": {"settings": "APT, Very Bothered at least 1 Month + Persisting at least 2 Weeks + At least 1 episode"}, "[6]": {"settings": "ITT observed, chelitis, xerosis, erythema, dry mouth, pruritus, epistaxis, conjunctivitis, eye irritation, dry eye"}, "[7]": {"settings": "ITT observed, lip balm, moisturizer, cleanser, cosmetics not counted"}, "[8]": {"settings": "ITT observed, phototoxicity, allergic skin/eczematous reaction, candida vaginitis"}, "[9]": {"settings": "ITT observed, study termination at subject's request motivated by treatment concern"}},
  "data": [
    {"smiles": "COc1ccc(-c2ccc3cc(C(=O)O)ccc3c2)cc1C12CC3CC(CC(C3)C1)C2", "note": "[Adapalene, 6-[3-(1-adamantyl)-4-methoxyphenyl]-2-naphtoic acid]", "values": [
      {"measurement": "stability in the presence of light", "setting": "[1]", "value": "stable"}
    ]},
    {"smiles": "CC1=C(/C=C/C(C)=C/C=C/C(C)=C\\C(=O)O)C(C)(C)CCC1", "note": "[Vehicle + Isotretinoin, 13-cis-retinoic acid]", "values": [
      {"measurement": "Overall success: Failure", "setting": "severe acne vulgaris [2]; [4]", "value": "52 (41.6%)"},
      {"measurement": "Overall success: Success", "setting": "severe acne vulgaris [2]; [4]", "value": "73 (58.4%)"},
      {"measurement": "Overall Success", "setting": "severe acne vulgaris [2]; PP population, 20 weeks", "value": "65 (58.0%) patients (%)"},
      {"measurement": "Overall success: Failure", "setting": "severe acne vulgaris [2]; PP population, count (%)", "value": "47 (42.0%)"},
      {"measurement": "composite endpoint (efficacy and safety), overall success", "setting": "severe acne vulgaris [2]; intent-to-treat population, p=0.125", "value": 54.9, "unit": "%"},
      {"measurement": "composite endpoint (efficacy and safety), overall success", "setting": "severe acne vulgaris [2]; per-protocol population, p=0.014", "value": 58, "unit": "%"},
      {"measurement": "Efficacy failure (nodule reduction <75%), Event", "setting": "severe acne vulgaris [3]; ITT observed", "value": 2, "unit": "n"},
      {"measurement": "Efficacy failure (nodule reduction <75%), Subject", "setting": "severe acne vulgaris [3]; ITT observed", "value": "2 (1.6%) n, %"},
      {"measurement": "Efficacy Success (nodule reduction >75%)", "setting": "severe acne vulgaris [3]; PP population, end of 20-week treatment", "value": "110 (98.2%) patients (%)"},
      {"measurement": "Atrophic acne scar count (Mean ± SD)", "setting": "severe acne vulgaris [3]; W12-LOCF (ITT)", "value": "16.7 ± 15.7"},
      {"measurement": "Atrophic acne scar count (Mean ± SD)", "setting": "severe acne vulgaris [3]; W20-LOCF (ITT)", "value": "16.1 ± 16.7"},
      {"measurement": "Inflammatory lesions (Median) (not including nodules), % change", "setting": "severe acne vulgaris [3]; Week 20, ITT LOCF", "value": "−95", "unit": "%"},
      {"measurement": "Nodules (Mean), % change", "setting": "severe acne vulgaris [3]; Week 20, ITT LOCF", "value": "−96", "unit": "%"},
      {"measurement": "Total lesion counts (Median), % change", "setting": "severe acne vulgaris [3]; Week 20, ITT LOCF", "value": "−93", "unit": "%"},
      {"measurement": "acne lesion outcomes compared to Adapalene-BPO+Doxycycline (in words)", "setting": "severe acne vulgaris [3]; Week 20, most of the acne lesion outcomes", "value": "superior"},
      {"measurement": "P. acnes fluorescence, median percent change", "setting": "P. acnes; week 2", "value": "+14.1%"},
      {"measurement": "P. acnes reduction (in words)", "setting": "P. acnes; week 20", "value": "in favor of ISO"},
      {"measurement": "Clinically significant lab abnormality, Evt", "setting": "APT", "value": 6, "unit": "n"},
      {"measurement": "Clinically significant lab abnormality, Subj.", "setting": "APT", "value": "4 (3.0%) n (%)"},
      {"measurement": "Related AE requiring a prescription of a concomitant medical treatment, Evt", "setting": "APT", "value": 34, "unit": "n"},
      {"measurement": "Related AE requiring a prescription of a concomitant medical treatment, Subj.", "setting": "APT", "value": "27 (25.6%) n (%)"},
      {"measurement": "Related AEs deemed as safety failure, Subj.", "setting": "APT", "value": "45 (33.8%) n (%)"},
      {"measurement": "Related AEs leading to discontinuation, Evt", "setting": "APT", "value": 5, "unit": "n"},
      {"measurement": "Related AEs leading to discontinuation, Subj.", "setting": "APT", "value": "4 (3.0%) n (%)"},
      {"measurement": "Related AEs, Evt", "setting": "APT", "value": 299, "unit": "n"},
      {"measurement": "Related AEs, Subj. with at least one event", "setting": "APT", "value": "117 (88.0%) n (%)"},
      {"measurement": "Related serious AEs, Evt", "setting": "APT", "value": 1, "unit": "n"},
      {"measurement": "Related serious AEs, Subj.", "setting": "APT", "value": "1 (0.8%) n (%)"},
      {"measurement": "Related severe AEs, Evt", "setting": "APT", "value": 5, "unit": "n"},
      {"measurement": "Related severe AEs, Subj.", "setting": "APT", "value": "5 (3.8%) n (%)"},
      {"measurement": "subjects reporting at least 1 related AE", "setting": "APT", "value": 88, "unit": "%"},
      {"measurement": "subjects with related AEs deemed as a safety failure (AEs of special management concern)", "setting": "APT", "value": 33.8, "unit": "%"},
      {"measurement": "Other medically relevant related AEs, Evt", "setting": "[5]", "value": 35, "unit": "n"},
      {"measurement": "Other medically relevant related AEs, Subj.", "setting": "[5]", "value": "23 (17.3%) n (%)"},
      {"measurement": "Related AEs deemed as safety failure, Evt", "setting": "APT, each AE counted once", "value": 73, "unit": "n"},
      {"measurement": "Clinically significant lab abnormality, Event", "setting": "ITT observed", "value": 6, "unit": "n"},
      {"measurement": "Clinically significant lab abnormality, Subject", "setting": "ITT observed", "value": "4 (3.2%) n, %"},
      {"measurement": "Inability to escalate to Iso 1 mg/kg/day, Event", "setting": "ITT observed", "value": 5, "unit": "n"},
      {"measurement": "Inability to escalate to Iso 1 mg/kg/day, Subject", "setting": "ITT observed", "value": "5 (4.0%) n, %"},
      {"measurement": "Necessity of oral drug downward dose adjustment, Event", "setting": "ITT observed", "value": 2, "unit": "n"},
      {"measurement": "Necessity of oral drug downward dose adjustment, Subject", "setting": "ITT observed", "value": "2 (1.6%) n, %"},
      {"measurement": "Related AE leading to discontinuation, Event", "setting": "ITT observed", "value": 5, "unit": "n"},
      {"measurement": "Related AE leading to discontinuation, Subject", "setting": "ITT observed", "value": "4 (3.2%) n, %"},
      {"measurement": "Related SAE, Event", "setting": "ITT observed", "value": 1, "unit": "n"},
      {"measurement": "Related SAE, Subject", "setting": "ITT observed", "value": "1 (0.8%) n, %"},
      {"measurement": "Related Severe AE, Event", "setting": "ITT observed", "value": 5, "unit": "n"},
      {"measurement": "Related Severe AE, Subject", "setting": "ITT observed", "value": "5 (4.0%) n, %"},
      {"measurement": "Safety Failure, Event", "setting": "ITT observed", "value": 95, "unit": "n"},
      {"measurement": "Safety Failure, Subject", "setting": "ITT observed", "value": "50 (40.0%) n, %"},
      {"measurement": "subjects with safety failure", "setting": "ITT observed", "value": 40.0, "unit": "%"},
      {"measurement": "Predefined related AE Very Bothered, at least 1 Month, Event", "setting": "[6]", "value": 2, "unit": "n"},
      {"measurement": "Predefined related AE Very Bothered, at least 1 Month, Subject", "setting": "[6]", "value": "2 (1.6%) n, %"},
      {"measurement": "Related AE requiring a prescription of a concomitant medical treatment, Event", "setting": "[7]", "value": 34, "unit": "n"},
      {"measurement": "Related AE requiring a prescription of a concomitant medical treatment, Subject", "setting": "[7]", "value": "27 (21.6%) n, %"},
      {"measurement": "Predefined related AE for at least 1 episode, Event", "setting": "[8]", "value": 21, "unit": "n"},
      {"measurement": "Predefined related AE for at least 1 episode, Subject", "setting": "[8]", "value": "15 (12.0%) n, %"},
      {"measurement": "Subject's treatment concern, Event", "setting": "[9]", "value": 2, "unit": "n"},
      {"measurement": "Subject's treatment concern, Subject", "setting": "[9]", "value": "2 (1.6%) n, %"},
      {"measurement": "Safety Success (absence of medically relevant events)", "setting": "PP population, 20 weeks", "value": "67 (59.8%) patients (%)"}
    ]}
  ]
}
